Reference: BindingDB's records for doi:10.1021/jm0002782 (Abbott Laboratories, 2000)

Experiment: Evaluated for its ability to block the adherence of JY-8 cells to immobilized ICAM-1.

SMILES | IC50
O=C(/C=C/c1ccc(Sc2ccc(Cl)cc2Cl)c(Cl)c1)NCCCN1CCCC1=O [3-[3-Chloro-4-(2,4-dichloro-phenylsulfanyl)-phenyl]-N-[3-(2-oxo-pyrrolidin-1-yl)-propyl]-acrylamide] | 0.7 µM

Experiment: as above
Remark: another data set of the same source

SMILES | IC50
CC(=O)N1CCN(C(=O)/C=C/c2ccc(Sc3ccc(Cl)cc3Cl)c(Cl)c2)CC1 [1-(4-Acetyl-piperazin-1-yl)-3-[3-chloro-4-(2,4-dichloro-phenylsulfanyl)-phenyl]-propenone] | 0.24 µM
CC(=O)N1CCN(C(=O)/C=C/c2ccc(Sc3ccc(Cl)cc3Cl)c([N+](=O)[O-])c2)CC1 [1-(4-Acetyl-piperazin-1-yl)-3-[4-(2,4-dichloro-phenylsulfanyl)-3-nitro-phenyl]-propenone] | 0.063 µM
CCc1ccccc1Sc1ccc(/C=C/C(=O)N2CCN(C(C)=O)CC2)cc1[N+](=O)[O-] [1-(4-Acetyl-piperazin-1-yl)-3-[4-(2-ethyl-phenylsulfanyl)-3-nitro-phenyl]-propenone] | 0.1 µM
O=C(/C=C/c1ccccc1Sc1ccc(Cl)cc1Cl)N1CCOCC1 [3-[2-(2,4-Dichloro-phenylsulfanyl)-phenyl]-1-morpholin-4-yl-propenone] | 5.3 µM
O=C(/C=C/c1ccccc1Sc1ccc(Cl)cc1Cl)NCCCCCCO [3-[2-(2,4-Dichloro-phenylsulfanyl)-phenyl]-N-(6-hydroxy-hexyl)-acrylamide] | 2.1 µM
O=C(/C=C/c1ccc(Sc2ccc(Cl)cc2Cl)c([N+](=O)[O-])c1)NCCCN1CCCC1=O [3-[4-(2,4-Dichloro-phenylsulfanyl)-3-nitro-phenyl]-N-[3-(2-oxo-pyrrolidin-1-yl)-propyl]-acrylamide] | 0.14 µM
O=C(/C=C/c1ccc(Sc2ccccc2/C=C/C(=O)N2CCOCC2)c(Cl)c1)N1CCOCC1 [3-{3-Chloro-4-[2-(3-morpholin-4-yl-3-oxo-propenyl)-phenylsulfanyl]-phenyl}-1-morpholin-4-yl-propenone] | 0.19 µM
O=C(/C=C/c1ccc(Sc2ccccc2CN2CCN(Cc3ccc4c(c3)OCO4)CC2)c(Cl)c1)N1CCOCC1 [3-{4-[2-(4-Benzo[1,3]dioxol-5-ylmethyl-piperazin-1-ylmethyl)-phenylsulfanyl]-3-chloro-phenyl}-1-morpholin-4-yl-propenone] | 0.36 µM
